Molecular target: ARF6 (Homo sapiens, UniProt P62330)
Assay: fluorometric nucleotide exchange assay
Type: biochemical

Chain of ARF6 (P62330 2-175): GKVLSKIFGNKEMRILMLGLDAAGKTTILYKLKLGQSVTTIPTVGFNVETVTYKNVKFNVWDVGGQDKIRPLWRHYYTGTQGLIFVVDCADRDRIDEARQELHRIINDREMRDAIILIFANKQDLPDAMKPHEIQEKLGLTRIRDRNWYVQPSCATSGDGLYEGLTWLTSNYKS

- IC50: 1000 nM
Substance: NAV-2729

Source: PMC5027844 (Cancer cell, 2016)
